Results on 19 molecules are retold here after patent publication US20180370927A1, “MICROBIOCIDAL OXADIAZOLE DERIVATIVES” (SYNGENTA PARTICIPATIONS AG, priority 2015, published 2018).

One data set deals with Uromyces viciae-Fabae. Nature of the data set: Uromyces viciae-fabae / field bean / leaf disc preventative (faba-bean rust). Format: in vivo. The following applies: foliar, 288 h, 100 ppm in the applied formulation, field bean leaf discs, assessed 12 days after application, read-out: disease control compared to untreated control leaf discs. The protocol: Leaf disks or leaf segments of various plant species are cut from plants grown in a greenhouse. The cut leaf disks or segments are placed in multiwell plates (24-well format) onto water agar. The leaf disks are sprayed with a test solution before (preventative) or after (curative) inoculation. Compounds to be tested are prepared as DMSO solutions (max. 10 mg/mL) which are diluted to the appropriate concentration with 0.025% Tween20 just before spraying. The inoculated leaf disks or segments are incubated under defined conditions (temperature, relative humidity, light, etc.) according to the respective test system. A single evaluation of disease level is carried out 3 to 14 days after inoculation, depending on the pathosystem. Percent disease control relative to the untreated check leaf disks or segments is then calculated.
Example 5: Fungicidal Activity Against Uromyces viciae-Fabael Field Bean/Leaf Disc Preventative (Faba-Bean Rust)
Field bean leaf discs are placed on water agar in multiwell plates (96-well format) and 10 μL of the formulated test compound diluted in acetone and a spreader pipetted onto the leaf disc. Two hours after application leaf discs are inoculated by spraying a spore suspension on the lower leaf surface. The leaf discs are incubated in a climate cabinet at 22° C. with 18 hour days and 70% relative humidity. The activity of a compound is assessed as percent disease control compared to untreated when an appropriate level of disease damage appears in untreated check leaf disks (12 days after application).
The following compounds at 100 ppm in the applied formulation give at least 80% disease control in this test when compared to untreated control leaf discs under the same conditions, which show extensive disease development.

The next data set relates to Phakopsora pachyrhizi. Kind of data set: Phakopsora pachyrhizi / soybean / leaf disc preventative (Asian soybean rust). Type of data set: in vivo. The following applies: foliar, 200 ppm in the applied formulation, soybean leaf disks, assessed 12 to 14 days after application, read-out: disease control compared to untreated control leaf disks. The gist of the method:
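Soybean leaf discs on water agar were sprayed with formulated compound diluted in water, then inoculated one day later with spore suspension on the lower leaf surface. Held 24-36 h dark at 20° C., 75% RH, then 12 h light/day; percent disease control versus untreated scored 12 to 14 days after application.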

Data set [1] relates to Glomerella lacenarium (Colletotrichum lacenarium). Nature of the data set: Glomerella lacenarium (Colletotrichum lacenarium) liquid culture / cucumber / preventative (anthracnose). Format: cell-based. Conditions: 20 ppm in the applied formulation, liquid culture in PDB, 24° C., 3 to 4 days after application, read-out: disease control (inhibition of growth, photometric) compared to untreated control. In short, it runs like this: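 Cryostored conidia in potato dextrose broth added to DMSO compound solution in microtiter plates, incubated at 24° C. Growth inhibition read photometrically 3 to 4 days after application, as percent control versus untreated check; compounds tested at 20 ppm.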

Data set [2] has as its system Puccinia recondita f. Sp. Tritici. Nature of the data set: Puccinia recondita f. sp. tritici / wheat / leaf disc preventative (brown rust). Format: in vivo. The following applies: foliar, 200 ppm in the applied formulation, wheat leaf segments, preventative, assessed 7 to 9 days after application, read-out: disease control compared to untreated control leaf disks. In short, it runs like this:
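Wheat cv. Kanzler leaf segments on agar sprayed with formulated compound in water, inoculated with rust spores 1 day later. Incubated at 19° C, 75% rh, 12 h light/12 h dark; percent disease control versus untreated scored 7 to 9 days after application; tested at 200 ppm.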

Data set [3] shares this test system. Nature of the data set: Puccinia recondita f. sp. tritici / wheat / leaf disc curative (brown rust). Format: in vivo. Conditions: foliar, 200 ppm in the applied formulation, wheat leaf segments, curative (applied 1 day after inoculation), assessed 6 to 8 days after application, read-out: disease control compared to untreated control leaf disks. The gist of the method:
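Wheat cv. Kanzler leaf segments on agar were inoculated with spores, kept dark at 19° C, 75% RH, then sprayed with diluted formulated compound 1 day after inoculation (curative). Incubation continued at 19° C, 75% RH, 12 h light/12 h dark, with percent disease control versus untreated scored 6 to 8 days after application.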

With `O=C(NCC1CC1)C(=O)Nc1ccc(-c2noc(C(F)(F)F)n2)cc1` [Compound 4.3, N-(cyclopropylmethyl)-N′-[4-[5-(trifluoromethyl)-1,2,4-oxadiazol-3-yl]phenyl]oxamide], the melting point (commonly the temperature of the solid-liquid transition) was in the range of 209 to 212 °C. In addition, in the data set on Uromyces viciae-Fabae, the pest or weed control at 100 ppm was at least 80%. Moreover, in the data set on Phakopsora pachyrhizi, the pest or weed control at 200 ppm was at least 80%.

`CN(Cc1ccc(-c2noc(C(F)(F)F)n2)cc1)C(=O)C(N)=O` [Compound 4.30, N′-methyl-N′-[[4-[5-(trifluoromethyl)-1,2,4-oxadiazol-3-yl]phenyl]methyl] oxamide] returned a melting point of 120 to 125 °C. Further, in data set [1], the inhibition (in general, the relative decrease from the control value, in per cent) at 20 ppm is at least 80%. For the same molecule, the pest or weed control at 200 ppm in the data set with Phakopsora pachyrhizi was at least 80%. In data set [2], the pest or weed control at 200 ppm was at least 80%. For the same molecule, the pest or weed control at 200 ppm in data set [3] was at least 80%.

In the case of `CO/N=C(/C(=O)Nc1ccc(-c2noc(C(F)(F)F)n2)cc1)c1ccccc1` [Compound 2.1, (2E)-2-methoxyimino-2-phenyl-N-[4-[5-(trifluoromethyl)-1,2,4-oxadiazol-3-yl]phenyl]acetamide], the pest or weed control at 100 ppm in the data set on Uromyces viciae-Fabae was at least 80%.

Regarding `CCOC(=O)C(=O)Nc1ccc(-c2noc(C(F)(F)F)n2)cc1` [Compound 2.3, ethyl 2-oxo-2-[4-[5-(trifluoromethyl)-1,2,4-oxadiazol-3-yl]anilino]acetate], the melting point fell in the range of 164 to 166 °C. The pest or weed control at 100 ppm with Uromyces viciae-Fabae is at least 80%. Moreover, the pest or weed control at 200 ppm in data set [2] was at least 80%.

`CO/N=C(\C)C(=O)NCc1ccc(-c2noc(C(F)(F)F)n2)cc1` [Compound 2.9, (2E)-2-methoxyimino-N-[[4-[5-(trifluoromethyl)-1,2,4-oxadiazol-3-yl]phenyl]methyl] propanamide] gave a melting point of 75.7 to 76.2 °C. For the same molecule, the inhibition at 20 ppm in data set [1] was at least 80%. The pest or weed control at 200 ppm in the data set on Phakopsora pachyrhizi was at least 80%. The pest or weed control at 200 ppm in data set [2] is at least 80%. In addition, the pest or weed control at 200 ppm in data set [3] is at least 80%.

In turn, `CON1CCC(N(C)C(=O)C(=O)NCc2ccc(-c3noc(C(F)(F)F)n3)cc2)CC1` [Compound 4.44, N′-(1-methoxy-4-piperidyl)-N′-methyl-N-[[4-[5-(trifluoromethyl)-1,2,4-oxadiazol-3-yl]phenyl]methyl] oxamide] returned a melting point of 123 to 125 °C. For the same molecule, in data set [1], the inhibition at 20 ppm is at least 80%. Also, the pest or weed control at 200 ppm in the data set with Phakopsora pachyrhizi is at least 80%. In addition, the pest or weed control at 200 ppm in data set [2] was at least 80%. In data set [3], the pest or weed control at 200 ppm is at least 80%.

On to `O=C(NCc1ccc(-c2noc(C(F)(F)F)n2)cc1)C(=O)N1CCCCC1` [Compound 4.40, 2-oxo-2-(1-piperidyl)-N-[[4-[5-(trifluoromethyl)-1,2,4-oxadiazol-3-yl]phenyl]methyl] acetamide], for which the melting point lay in the range of 104 to 108 °C. The inhibition at 20 ppm in data set [1] is at least 80%. Also, the pest or weed control at 200 ppm with Phakopsora pachyrhizi was at least 80%. The pest or weed control at 200 ppm in data set [2] was at least 80%. The pest or weed control at 200 ppm in data set [3] was at least 80%.

As for `CON=C(C(=O)NCc1ccc(-c2noc(C(F)(F)F)n2)cc1)c1ccccc1` [Compound 2.2, 2-methoxyimino-2-phenyl-N-[[4-[5-(trifluoromethyl)-1,2,4-oxadiazol-3-yl]phenyl]methyl]acetamide], in the data set on Uromyces viciae-Fabae, the pest or weed control at 100 ppm is at least 80%. For the same molecule, the inhibition at 20 ppm in data set [1] was at least 80%. Further, the pest or weed control at 200 ppm in data set [2] was at least 80%.

The molecule `O=C(O)C(=O)Nc1ccc(-c2noc(C(F)(F)F)n2)cc1` [Compound 3.1, 2-oxo-2-[4-[5-(trifluoromethyl)-1,2,4-oxadiazol-3-yl]anilino]acetic acid] registered a melting point of 184 to 186 °C. Moreover, the pest or weed control at 100 ppm with Uromyces viciae-Fabae is at least 80%.

Molecule `CNC(=O)C(=O)N(Cc1ccc(-c2noc(C(F)(F)F)n2)cc1)OC` [Compound 4.35, N′-methoxy-N-methyl-N′-[[4-[5-(trifluoromethyl)-1,2,4-oxadiazol-3-yl]phenyl]methyl] oxamide] gave a melting point of 87.7 to 88.8 °C. In data set [1], the inhibition at 20 ppm is at least 80%. In addition, in the data set on Phakopsora pachyrhizi, the pest or weed control at 200 ppm was at least 80%. Also, the pest or weed control at 200 ppm in data set [2] was at least 80%. Further, in data set [3], the pest or weed control at 200 ppm was at least 80%.

`COCCNC(=O)C(=O)Nc1ccc(-c2noc(C(F)(F)F)n2)cc1C` [Compound 4.38, N-(2-methoxyethyl)-N′-[2-methyl-4-[5-(trifluoromethyl)-1,2,4-oxadiazol-3-yl]phenyl] oxamide] gave a melting point of 126 to 130 °C. In addition, the inhibition at 20 ppm in data set [1] was at least 80%. Moreover, the pest or weed control at 200 ppm with Phakopsora pachyrhizi is at least 80%. For the same molecule, in data set [2], the pest or weed control at 200 ppm is at least 80%. Also, the pest or weed control at 200 ppm in data set [3] is at least 80%.

As to `CCCON(Cc1ccc(-c2noc(C(F)(F)F)n2)cc1)C(=O)C(N)=O` [Compound 4.11, N′-propoxy-N′-[[4-[5-(trifluoromethyl)-1,2,4-oxadiazol-3-yl]phenyl]methyl] oxamide], in the data set with Uromyces viciae-Fabae, the pest or weed control at 100 ppm was at least 80%. The inhibition at 20 ppm in data set [1] was at least 80%. In data set [2], the pest or weed control at 200 ppm is at least 80%.

Take `O=C(Nc1ccc(-c2noc(C(F)(F)F)n2)cc1)C(=O)NC1CC1` [Compound 4.6, N′-cyclopropyl-N-[4-[5-(trifluoromethyl)-1,2,4-oxadiazol-3-yl]phenyl]oxamide]: the melting point is 238 to 241 °C. Also, the pest or weed control at 100 ppm in the data set on Uromyces viciae-Fabae is at least 80%. In addition, the pest or weed control at 200 ppm in the data set with Phakopsora pachyrhizi was at least 80%.

In turn, `CC(=O)C(=O)NCc1ccc(-c2noc(C(F)(F)F)n2)cc1` [Compound 1.35, 2-oxo-N-[[4-[5-(trifluoromethyl)-1,2,4-oxadiazol-3-yl]phenyl]methyl]propanamide] displayed a melting point of 75.8 to 77.5 °C. Further, in data set [1], the inhibition at 20 ppm is at least 80%. For the same molecule, the pest or weed control at 200 ppm with Phakopsora pachyrhizi was at least 80%. In addition, the pest or weed control at 200 ppm in data set [2] was at least 80%. Besides, the pest or weed control at 200 ppm in data set [3] is at least 80%.

`O=C(Nc1ccc(-c2noc(C(F)(F)F)n2)cc1)C(=O)c1ccccc1` [Compound 1.1, 2-oxo-2-phenyl-N-[4-[5-(trifluoromethyl)-1,2,4-oxadiazol-3-yl]phenyl]acetamide]: the pest or weed control at 100 ppm in the data set on Uromyces viciae-Fabae was at least 80%.

Consider `Cc1cc(-c2noc(C(F)(F)F)n2)ccc1NC(=O)C(=O)N(C)C` [Compound 4.37, N′,N′-dimethyl-N-[2-methyl-4-[5-(trifluoromethyl)-1,2,4-oxadiazol-3-yl]phenyl]oxamide], for which the melting point fell in the range of 79 to 89 °C. For the same molecule, the inhibition at 20 ppm in data set [1] is at least 80%. The pest or weed control at 200 ppm with Phakopsora pachyrhizi is at least 80%. Further, the pest or weed control at 200 ppm in data set [2] is at least 80%. For the same molecule, the pest or weed control at 200 ppm in data set [3] was at least 80%.

With `O=C(Nc1ccc(-c2noc(C(F)(F)F)n2)cc1)C(=O)c1cccc(F)c1` [Compound 1.2, 2-(3-fluorophenyl)-2-oxo-N-[4-[5-(trifluoromethyl)-1,2,4-oxadiazol-3-yl]phenyl]acetamide], in the data set on Uromyces viciae-Fabae, the pest or weed control at 100 ppm is at least 80%. Also, the inhibition at 20 ppm in data set [1] was at least 80%.

Regarding `C#CCNC(=O)C(=O)Nc1ccc(-c2noc(C(F)(F)F)n2)cc1` [Compound 4.5, N-prop-2-ynyl-N′-[4-[5-(trifluoromethyl)-1,2,4-oxadiazol-3-yl]phenyl]oxamide], the melting point is 212 to 214 °C. In the data set with Uromyces viciae-Fabae, the pest or weed control at 100 ppm was at least 80%. The pest or weed control at 200 ppm in the data set on Phakopsora pachyrhizi is at least 80%.

Consider `CN(C)NC(=O)C(=O)Nc1ccc(-c2noc(C(F)(F)F)n2)cc1` [Compound 4.8, 2-(2,2-dimethylhydrazino)-2-oxo-N-[4-[5-(trifluoromethyl)-1,2,4-oxadiazol-3-yl]phenyl]acetamide], for which the melting point lay in the range of 232 to 234 °C. The pest or weed control at 100 ppm in the data set with Uromyces viciae-Fabae was at least 80%. The pest or weed control at 200 ppm with Phakopsora pachyrhizi is at least 80%.
